# Where “and” joins values, the source holds several entries; their conditions need not be identical. Equal values may be shown once.
# Tests used:
# [1] = system: cornea of enucleated porcine eyes; assay: Enucleated porcine eyes, corneal power by topographical mapping (Optikon 2000); details: for Post-treatment Power (D), corneal power by topographical mapping: 1 minute exposure
# Excerpt: Eyes were procured from a local slaughterhouse, positioned in a device to stabilize the eye and subjected to topographical evaluation using the Optikon 2000 system. The corneal surface was dried using sterile gauze and then wetted with drops of buffer solution. The wetted eyes were again dried and exposed again to the same solution. Then a peripheral ring around the circumference of the corneal surface, slightly away from the limbus and the central cornea, was carefully treated by adding drops of buffer containing the active agent, a 20 mg/ml solution of glutaric anhydride. The eyes were then reexamined topographically and photos taken. Following evaluation, the eyes were placed in OptiSol for storage pending additional evaluations. Three eyes were treated using this protocol. In two eyes the active agent at 20 mg/mL was applied to a ring around the corneal periphery. The exposure width was approximately 1 mm. In one eye the active agent at 20 mg/mL was applied to a 2 mm diameter area on the apex of the central cornea. The exposure time was 1 minute. All eyes were then washed with neutral pH phosphate buffer.
# cat cornea = assay: In vivo cat model, corneal power by topographical mapping and optical examinations
# Experimental: Two cats were treated with the active agent, glutaric anhydride. Treatment was applied to the right eye (OD) while the contra lateral eye (OS) served as a control. Buffer solution (0.02M disodium phosphate solution at pH 9.0) was first applied to the corneal surface. This was immediately followed by application of a solution of glutaric anhydride in disodium phosphate into a peripheral ring of a corneal mold placed on the corneal surface. The mold provided a tight seal to prevent migration of the active agent to the central cornea. Two treatment applications were provided at Day 1 and Day 7. The dosage of the active agent was 50 mg/mL. Eyes were examined for another 7 days following the second treatment.
# [2] = system: cornea of whole porcine (pig) eyes; assay: Treatment of trephined enucleated porcine eyes, inspection of corneal curvature; details: 50 mg/mL in 0.2M disodium phosphate pH 9.0, 1 minute, 7 mm trephined ring
# Experimental: Whole, fresh porcine (pig) eyes were obtained from a local abattoir and immediately placed in Optisol GS preservation solution. The whole eye was placed in a holder allowing the corneal surface to be exposed. A 7 mm trephine was used to cut through the epithelium and penetrate the superficial corneal tissue. The corneal surface was then flooded with 0.2M disodium phosphate solution, pH 9.0. After 1 minute, the surface of the cornea was dried using an absorbent wipe (Kim Wipe). The corneal surface was immediately treated with 0.2M disodium phosphate solution, pH 9.0, containing 50 mg/mL of glutaric anhydride. After 1 minute of exposure, the cornea was flushed with phosphate buffered saline, pH 7.2. The surface of the cornea was inspected and the corneal curvature examined and compared to untreated eyes. […] The application of glutaric anhydride to a trephined peripheral ring of a pig cornea produced obvious flattening of the central cornea. It is believed that this technique might provide a simple, non-surgical method for treating myopia by inducing swelling in defined ring on the corneal periphery, thereby causing flattening of the central cornea.
# [3] = system: processed human skin (lyophilized dermis); assay: Acylation of processed human skin (lyophilized dermis), mechanical properties; details: 1 minute treatment
# Experimental: Processed human skin was obtained for treatment. The processed skin was comprised of lyophilized dermis. Four samples were tested, two 2 cm×4 cm specimens and two 2 cm×8 cm specimens. Two sets of specimens were treated with 50 mg/mL of glutaric anhydride (dose #1) and the other two sets with 100 mg/mL of glutaric anhydride (dose #2). The rejuvenation agents were prepared in dilute buffer solution. Prior to treatment with the active agent, skin specimens were pre-treated with buffer alone. Treatments were completed in 1 minute.
# dermal tissue = assay: Second experiment: stress-strain analysis of dermal tissue strips (Sample C vs Sample D, FIG. 5); set-up: species or system human; details: fresh 100 mg/mL anhydride solution
# Experimental: FIG. 5 is a graph showing the stress-strain analysis of dermal tissue specimen C and dermal tissue specimen D after treating the specimens with the same acylating agent under different treatment conditions.
# In a second experiment one strip (Sample C) of dermal tissue was exposed to a 100 mg/mL anhydride solution. A second strip (Sample D) was exposed to the same anhydride solution after about 2 minutes.
# [4] = system: reconstituted, lyophilized human dermis; assay: Third series: reconstituted lyophilized human dermis exposed to acylation agent
# Excerpt: In a third series of experiments, reconstituted, lyophilized human dermis samples were exposed to the acylation agents (glutaric anhydride). Again, dermal thickness increased from about 1 mm to 2 mm due to increased water binding. In addition, dermal pliability was increased as evidenced by the decreased relaxation time. It is hypothesized that the reactive agent changes the net charge distribution on collagen fibrils reducing the intensity of intrafibrillar interactions and increasing pliability. Increased water binding and pliability are characteristics associated with young skin.
# articular cartilage = assay: Rabbit articular cartilage slices, stress-strain analysis and histology; details: 3 minutes exposure; for High Modulus Region Pa) / Low Region Modulus (Pa): 5 mg/ml in 0.02M disodium phosphate; for histological examination, control vs treated articular cartilage: 5 mg/ml
# Experimental: Articular cartilage was dissected from both femoral and tibial chondyles of sacrificed rabbits. Cartilage slices were stored in sterile physiological saline. Eight slices of similar size (about 2 mm×2 mm) were placed in individual Eppendorf tubes. Physiological saline was replaced with 0.02M disodium phosphate at pH 8.5. […] Three specimens were treated with 0.02M disodium phosphate containing 5 mg/ml glutaric anhydride (95%). The remaining three specimens were treated with 0.02M disodium phosphate containing 5 mg/ml of acetic anhydride. Samples were exposed to control solution or acylation chemical for 3 minutes and then washed three times with sterile phosphate buffered saline (0.04M) at pH 7.2.
# [5] = system: sclera tissue of bovine eyes; assay: Softening of bovine sclera tissue, compression analysis; details: 100 mg/mL, 1 minute exposure
# Experimental: Bovine eyes were procured from a local slaughterhouse and stored in Optisol solution. Whole eyes were removed from the preservation solution and the sclera dried using Kim wipes. A solution of 0.2M disodium phosphate, pH 9.5 was applied to the dried sclera tissue. The tissue was exposed to the disodium phosphate solution for 1 minute. The tissue was again dried using a Kim wipe and a solution containing 100 mg/mL of glutaric anhydride in […] was exposed to the anhydride solution for 1 minute and the tissue then thoroughly rinsed with sterile 0.02M phosphate buffer, pH 7.2. The exposed tissue was examined for tissue softening. […] Sclera tissue softening was also obvious by application of thumb pressure to treated and untreated areas of the sclera tissue. It is proposed that sclera softening using acylating agents may be used to expand sclera tissue, thereby permitting more space for the ciliary body to expand and contract the lens.
smiles,measurement,setting,value
O=C1CCCC(=O)O1 [glutaric anhydride],"Post-treatment Power (D), corneal power by topographical mapping",[1]; 20 mg/mL applied to 2 mm diameter area on apex of central cornea,41.3 D
same,"Post-treatment Power (D), corneal power by topographical mapping",[1]; 20 mg/mL applied to about 1 mm wide ring around corneal periphery,37.4 D and 40.9 D
same,appearance of eyes by visual examination,"[1]; after treatment, 20 mg/mL, 1 minute",appeared clear
same,increase of refractive power,"[1]; treatment of the central cornea, 20 mg/mL",about 0.7 diopters
same,reduction of corneal power,"[1]; treatment of the periphery of the cornea, 20 mg/mL",more than 2 diopters
same,"optical examinations, including slit-lamp biomicroscopy and Shiotz tonometry, treated vs control eyes","cat cornea; 7 days following the second treatment, 50 mg/mL",no differences
same,"Average Post-treat (D), corneal power by topographical mapping","cat cornea; right eye (OD), 50 mg/mL in peripheral ring, two applications at Day 1 and Day 7",38.88 D and 40.68 D
same,central corneal surface compared to untreated eyes,[2],clearly depressed or flattened
same,Strain (%),[3]; dose 50 mg/mL,79%
same,Stress (MPa),[3]; dose 50 mg/mL,2.5 MPa
same,Thickness,[3]; dose 50 mg/mL,1.77 mm
same,Strain (%),[3]; dose 100 mg/mL,84%
same,Stress (MPa),[3]; dose 100 mg/mL,2.7 MPa
same,Thickness,[3]; dose 100 mg/mL,2.55 mm
same,thickness of Sample C relative to Sample D,dermal tissue; vs Sample D (hydrolyzed solution),significantly thicker
same,elastic and viscous stress-strain curves,"dermal tissue; vs Sample D (same solution after about 2 minutes, hydrolyzed)",shifted to higher percent strain
same,dermal pliability,[4],increased
same,relaxation time,[4],decreased
same,dermal thickness after treatment,[4]; increased from about 1 mm,~2 mm
same,High Modulus Region Pa),articular cartilage,58.1 Pa
same,Low Region Modulus (Pa),articular cartilage,26.7 Pa
same,"histological examination, control vs treated articular cartilage",articular cartilage,no differences
same,"sclera tissue softening by thumb pressure, treated vs untreated areas",[5],obvious
same,low modulus by compression analysis,[5]; after 0.2M disodium phosphate pH 9.5,significant loss of low modulus
CC(=O)OC(C)=O [acetic anhydride],High Modulus Region Pa),articular cartilage,47.7 Pa
same,Low Region Modulus (Pa),articular cartilage,16.6 Pa
same,"histological examination, control vs treated articular cartilage",articular cartilage,no differences
